The results in this text go back to patent US8993585B2, “Cyclic amine substituted pyrimidinediamines as PKC inhibitors” (Rigel Pharmaceuticals, Inc., priority 2007, dated 2015).

In one test the test system is Human primary T cells. As to the kind of experiment: IL-2 ELISA, Human Primary T Cell, Anti-CD3+CD28+ (Example 3). Format: cell-based. The following applies: Homo sapiens, T-cell, 24 h, anti-CD3+CD28 stimulation. Here is the method: Human primary T cell isolation and culture: Human primary T cells were prepared as follows. […] The cells at the serum:ficoll interface were recovered and washed twice with 5 volumes of PBS. […] The primary T-cells were then washed twice with PBS to remove the IL-2.
Primary T cell stimulation and IL2 ELISA: Human primary T cells (100,000 cells per well) were pre-incubated with or without test compound in Yssel's medium for 1 hr at 37° C. Cells were then stimulated by transferring them to round-bottom 96-well plates pre-coated with 1 ug/ml αCD3 and 5 μg/ml αCD28. For counter assay, cells were instead stimulated by adding 8× stock solutions of PMA and ionomycin in Yssels (for final concentrations of 0.5 ng/ml PMA and 0.1 uM ionomycin, both from Calbiochem).
A general note: In an ELISA, binding on a coated surface is turned into a signal by an enzyme label.
The term IC50 denotes the point on the concentration scale where inhibition reaches its midpoint. Read a high IC50 as weaker potency. `COc1cc(Nc2ncc(F)c(NC3CC(C)(C)N(C)C(C)(C)C3)n2)cc(OCCN2CCCC2)c1` [Compound I-434] registered a concentration for half-maximal inhibition (IC50) of 270 nM. The same measure, in the same setting: to `CCN(CC)C1CCC(Nc2nc(Nc3cccc(C#N)c3)ncc2F)CC1` (stereo not drawn) [IV-6, N2-(3-Cyano)phenyl-N4-(4-diethylamino)cyclohexyl-5-fluoro-2,4-pyrimidinediamine] belongs 4510 nM. The compound `CN1C(C)(C)CC(Nc2nc(Nc3cnc4c(c3)OC(F)(F)C(=O)N4)ncc2F)CC1(C)C` [II-25] showed an IC50 of 2070 nM.

Turning to `CN1C(C)(C)CC(Nc2nc(Nc3cc4c(cc3Cl)OCO4)ncc2F)CC1(C)C` [II-115], the IC50 turned out to be 1840 nM. The compound `CCN1C(=O)C(C)(C)Sc2cc(Nc3ncc(F)c(NC4CC(C)(C)N(C)C(C)(C)C4)n3)ccc21` [II-63] came in with a half-inhibitory concentration (IC50) of 77.2 nM.

For the compound `COc1ccc(Nc2ncc(F)c(N(Cc3ccc(-c4ccccc4)cc3)C3CC(C)(C)N(C)C(C)(C)C3)n2)cc1OC(F)F` [Compound I-319], half-maximal inhibition (IC50) was put at 2850 nM.

As to `CN1C(=O)c2ccc(Nc3ncc(F)c(NC4CC(C)(C)N(C)C(C)(C)C4)n3)cc2C1=O` [II-149], the concentration for half-maximal inhibition (IC50) is 990 nM. On the same count and under the same terms, to `CN1C(C)(C)CC(Nc2nc(Nc3nc(C(F)(F)F)co3)ncc2F)CC1(C)C` [II-134] belongs 16000 nM. Still for that read-out and setting: to `CN(C)c1ccc(-c2ccc(Nc3ncc(F)c(NC4CC(C)(C)NC(C)(C)C4)n3)cc2C#N)cn1` [Compound I-428] belongs 560 nM; to `CN1C(C)(C)CC(Nc2nc(Nc3ccc4c(c3)OCCCO4)ncc2F)CC1(C)C` [II-43], 1470 nM. In turn, `Cc1ccc(Nc2ncc(F)c(N(Cc3ccc4ccccc4n3)C3CC(C)(C)N(C)C(C)(C)C3)n2)cc1C#N` [Compound I-320] yielded an IC50 of 6140 nM. `Cc1ccc(Nc2ncc(F)c(N(Cc3ccc(-c4ccccc4)cc3)C3CC(C)(C)N(C)C(C)(C)C3)n2)cc1C#N` [Compound I-318] registered a concentration for half-maximal inhibition (IC50) of 2510 nM. On the same count and under the same terms, to `CN1C(C)(C)CC(Nc2nc(Nc3cc4c(cc3F)OC(F)(F)O4)ncc2F)CC1(C)C` [II-176] belongs 2140 nM. Same read-out and setting: to `CN1C(C)(C)CC(Nc2nc(Nc3nc(-c4ccc(C(F)(F)F)cc4)cs3)ncc2F)CC1(C)C` [II-140] belongs 590 nM. Same read-out and setting: to `CC(C)N1C(=O)C(C)(C)Oc2cc(Nc3ncc(F)c(NC4CC(C)(C)N(C)C(C)(C)C4)n3)ccc21` [II-44] belongs 298 nM. Take `CCN1C(=O)COc2cc(Nc3ncc(F)c(NC4CC(C)(C)N(C)C(C)(C)C4)n3)ccc21` [II-58]: inhibition was half-maximal at 231 nM (IC50).

Staying with this test, now noted: anti-CD3+CD28 stimulation, 24 hours.
Turning to `CN1C(C)(C)CCC(Nc2nc(Nc3ccc(N4CCN(S(C)(=O)=O)CC4)c(C(F)(F)F)c3)ncc2F)CC1(C)C` (stereo not drawn) [Compound I-264, 5-Fluoro-N2-[4-methylsulfonylpiperazin-lyl-3-trifluoromethyl]phenyl-N4-(1,2,2,7,7-pentamethylazepan-4-yl)-2,4-pyrimidinediamine], 4300 nM corresponded to half-maximal inhibition (IC50). On the same count and under the same terms, to `CN1C(C)(C)CC(Nc2nc(Nc3cnc(N4CCOCC4)c(C(F)(F)F)c3)ncc2F)CC1(C)C` [Compound I-271] belongs 670 nM; to `COc1ccc(Nc2ncc(F)c(NC3CC(C)(C)N(C)C(C)(C)C3)n2)cc1-c1ccncc1` [Compound I-193], 653 nM; to `CN1C(C)(C)CC(Nc2nc(Nc3ccc(C#N)c(C(F)(F)F)c3)ncc2F)CC1(C)C` [Compound I-152], 604 nM. In turn, `CN1C(C)(C)CC(Nc2nc(Nc3ccc(NC(=O)c4ccccc4)cc3)ncc2F)CC1(C)C` [Compound I-133] displayed a 50% inhibitory concentration (IC50) of 1130 nM.

`CN1C(C)(C)CC(Nc2nc(Nc3ccc(-n4nnnc4-c4ccco4)cc3)ncc2F)CC1(C)C` [Compound I-458]: the 50% inhibitory concentration (IC50) is 790 nM. On the same count and under the same terms, to `Cc1cnc(Nc2ccc(S(N)(=O)=O)cc2)nc1NC1CC(C)(C)N(C)C(C)(C)C1` [Compound I-13] belongs 7680 nM; to `CN1C(C)(C)CC(Nc2nc(Nc3cc(-c4ccncc4)cc(C(F)(F)F)c3)ncc2F)CC1(C)C` [Compound I-201], 522 nM. As for `CN1CCN(c2ccc(Nc3ncc(F)c(NC4CC(C)(C)N(C)C4(C)C)n3)cc2C(F)(F)F)CC1` (stereo not drawn) [Compound I-285, 5-Fluoro-N2-[4-(4-methylpiperazin-1-yl)-3-(trifluoromethyl)]phenyl-N4-(1,2,2,5,5-pentamethylpyrrolidin-3-yl)-2,4-pyrimidinediamine], the IC50 is 1230 nM. Same read-out and setting: to `COc1ccc(Nc2ncc([N+](=O)[O-])c(NC3CC(C)(C)N(C)C(C)(C)C3)n2)cc1Cl` [Compound I-71] belongs 632 nM; to `CN1C(C)(C)CC(Nc2nc(Nc3ccc(OC(F)(F)F)c(Br)c3)ncc2F)CC1(C)C` [Compound I-177], 764 nM. `CC(C)N1C(=O)C(C)(C)Oc2cc(Nc3ncc(C#N)c(NC4CC(C)(C)NC(C)(C)C4)n3)ccc21` [II-75] returned an IC50 of 476 nM. `COc1ccc(Nc2ncc(C(F)(F)F)c(NC3CC(C)(C)N(C)C(C)(C)C3)n2)cc1Cl` [Compound I-32] showed an IC50 of 328 nM. In turn, `CNC(=O)c1cc(Nc2ncc(F)c(NC3CC(C)(C)N(C)C(C)(C)C3)n2)ccc1N1CCN(C)CC1` [Compound I-54] yielded an IC50 of 3060 nM. Still for that read-out and setting: to `CN1C(C)(C)CC(Nc2nc(Nc3ccc4c(c3)OC(C)(C)C(=O)N4CC3CC3)ncc2F)CC1(C)C` [II-76] belongs 178 nM; to `COc1cc(Nc2ncc(F)c(NC3CC(C)(C)N(C)C(C)(C)C3)n2)ccc1-n1nc(C)cc1C` [Compound I-361], 4660 nM; to `CC1(C)CC(Nc2nc(Nc3cccc(-n4cnnn4)c3)ncc2C#N)CC(C)(C)N1` [Compound I-393], 430 nM. Turning to `COc1c(C)cc(Nc2ncc(F)c(NC3CC(C)(C)N(C)C(C)(C)C3)n2)cc1C` [Compound I-131], the concentration for half-maximal inhibition (IC50) was 629 nM. For the compound `COc1ccc(Nc2ncc(F)c(NC3CC(C)(C)N(CCC(=O)O)C(C)(C)C3)n2)cc1C(F)(F)F` [Compound I-305], it took 17900 nM to reach half-maximal inhibition (IC50). For the compound `CN1C(C)(C)CC(Nc2nc(Nc3ccc(OCCN4CCOCC4)c(Cl)c3)ncc2C#N)CC1(C)C` [Compound I-373], half-maximal inhibition (IC50) required 542 nM. As to `COc1ccc(Nc2ncc(F)c(NC3CCC(C)(C)N(C)C(C)(C)C3)n2)cc1OC` (stereo not drawn) [Compound I-267, 5-Fluoro-N2-[3,4-dimethoxy]phenyl-N4-(1,2,2,7,7-pentamethylazepan-4-yl)-2,4-pyrimidinediamine], it took 11700 nM to reach half-maximal inhibition (IC50).

As for `CCN1C(=O)C2(CCC2)Oc2cc(Nc3ncc(F)c(NC4CC(C)(C)N(C)C(C)(C)C4)n3)ccc21` [II-69], inhibition was half-maximal at 164 nM (IC50).

For `CN1C(C)(C)CC(Nc2nc(Nc3ccc(Cl)c(C#N)c3)ncc2C(F)(F)F)CC1(C)C` [Compound I-169], inhibition was half-maximal at 684 nM (IC50). As to `CN1C(C)(C)CC(Nc2nc(Nc3ccc(N4CCOCC4)c(Cl)c3)ncc2F)CC1(C)C` [Compound I-335], the concentration for half-maximal inhibition (IC50) was determined as 563 nM. For `COc1ccc(Nc2ncc(F)c(NC3CC(C)(C)N(C)C(C)(C)C3)n2)cc1-c1cnco1` [Compound I-369], the concentration for half-maximal inhibition (IC50) was found to be 624 nM.

Take `CCN1CCN(c2cc(Nc3ncc(F)c(NC4CC(C)(C)N(C)C(C)(C)C4)n3)ccc2Cl)CC1` [Compound I-41]: the half-inhibitory concentration (IC50) was found to be 2630 nM. In the case of `CN1C(C)(C)CC(Nc2nc(Nc3ccc4cn[nH]c4c3)ncc2F)CC1(C)C` [II-40], the IC50 was determined as 2970 nM.

On to `CCN1C(=O)C(F)(F)Oc2cc(Nc3ncc(C#N)c(NC4CC(C)(C)NC(C)(C)C4)n3)cnc21` [II-73], for which the midpoint of inhibition, the IC50, lay at 1180 nM. With `CN1C(C)(C)CC(Nc2nc(Nc3cccc(-n4cnnn4)c3)ncc2C#N)CC1(C)C` [Compound I-405], half-maximal inhibition (IC50) was put at 240 nM. On to `CN1C(C)(C)CCC(Nc2nc(Nc3ccc(N4CCOCC4)c(C(F)(F)F)c3)ncc2F)CC1(C)C` (stereo not drawn) [Compound I-261, 5-Fluoro-N2-[4-morpholine-3-trifluoromethyl]phenyl-N4-(1,2,2,7,7-pentamethylazepan-4-yl)-2,4-pyrimidinediamine], for which it took 4670 nM to reach half-maximal inhibition (IC50). `CCCc1nnnn1-c1cc(Nc2ncc(F)c(NC3CC(C)(C)N(C)C(C)(C)C3)n2)ccc1OC` [Compound I-395] returned a concentration for half-maximal inhibition (IC50) of 100 nM. In turn, `CN1C(C)(C)CC(Nc2nc(Nc3ccc(NC(=O)c4ccco4)c(C(F)(F)F)c3)ncc2F)CC1(C)C` [Compound I-355] showed an IC50 of 893 nM. On the same count and under the same terms, to `CN1C(C)(C)CC(Nc2nc(Nc3cccc(O)c3)ncc2F)CC1(C)C` [Compound I-327] belongs 5080 nM; to `Cc1ccc(Nc2ncc(C)c(NC3CC(C)(C)N(C)C(C)(C)C3)n2)cc1S(N)(=O)=O` [Compound I-15], 6850 nM; to `COC(=O)N1CCN(c2cc(Nc3ncc(F)c(NC4CC(C)(C)N(C)C(C)(C)C4)n3)ccc2Cl)CC1` [Compound I-43], 890 nM. Still for that read-out and setting: to `COc1cc(Nc2ncc(F)c(NC3CC(C)(C)N(C)C(C)(C)C3)n2)ccc1NC(=O)c1ccco1` [Compound I-353] belongs 1540 nM. Same read-out and setting: to `COc1ccc(Nc2ncc(F)c(NC3CC(C)(C)N(C)C3(C)C)n2)cc1Cl` (stereo not drawn) [Compound I-280, 5-Fluoro-N2-(3-chloro-4-methoxy)phenyl-N4-(1,2,2,5,5-pentamethylpyrrolidin-3-yl)-2,4-pyrimidinediamine] belongs 2730 nM; to `COc1cc(Nc2ncc(C#N)c(NC3CC(C)(C)NC(C)(C)C3)n2)cc(-n2nnnc2C)c1` [Compound I-402], 470 nM. `COc1ccc(Nc2ncc(F)c(NC3CCN(C)CC3)n2)cc1Cl` [III-1, N2-(3-Chloro-4-methoxy)phenyl-5-fluoro-N4-(1-methylpiperidin-4-yl)-2,4-pyrimidinediamine] had a half-maximal inhibitory concentration (IC50) of 2380 nM. Still for that read-out and setting: to `CN1C(C)(C)CC(Nc2nc(Nc3ccc(N4CCN(S(C)(=O)=O)CC4)c(C#N)c3)ncc2C#N)CC1(C)C` [Compound I-196] belongs 971 nM; to `COc1ccc(Nc2ncc(F)c(NC3CC(C)(C)N(C)C(C)(C)C3)n2)cc1-c1cc2ccccc2s1` [Compound I-195], 1120 nM.
